In patent US10138207B2, “Benzomorphan analogs and the use thereof” (priority 2012, dated 2018):
Read-outs that look alike come from different tables or passages of the source.

Tests used:
κ opioid receptor = κ opioid receptor (Homo sapiens, UniProt P41145); test: κ-opioid receptor [35S]GTPγS functional assay, U-2 OS cells; format: biochemical; design: expressed in transfected cells; host or cells: U-2 OS (in-house membranes); conditions: for Emax: read-out: GTPγS κ Emax
Procedure: Membranes from recombinant HEK-293 cells, CHO or U-2 OS cells expressing the recombinant human κ opioid receptor (κ) were prepared by lysing cells in ice cold hypotonic buffer (2.5 mM MgCl2, 50 mM HEPES, pH 7.4) (10 mL/10 cm dish) followed by homogenization with a tissue grinder/Teflon pestle. […] Membranes were collected by centrifugation at 30,000×g for 15 min at 4° C. and pellets were resuspended in hypotonic buffer to a final concentration of 1-3 mg/mL. Protein concentrations were determined using the BioRad protein assay reagent with bovine serum albumen as standard. Aliquots of κ receptor membranes were stored at −80° C.
Plates were incubated for 30 min at a temperature of about 25° C. with shaking.

μ-opioid receptor = μ-opioid receptor (Homo sapiens, UniProt P35372); test: μ-opioid receptor [35S]GTPγS functional assay, U-2 OS cells; format: biochemical; design: expressed in transfected cells; host or cells: U-2 OS; conditions: for Emax: relative to DAMGO
μ-opioid receptor, sequence (P35372 whole entry, species assumed): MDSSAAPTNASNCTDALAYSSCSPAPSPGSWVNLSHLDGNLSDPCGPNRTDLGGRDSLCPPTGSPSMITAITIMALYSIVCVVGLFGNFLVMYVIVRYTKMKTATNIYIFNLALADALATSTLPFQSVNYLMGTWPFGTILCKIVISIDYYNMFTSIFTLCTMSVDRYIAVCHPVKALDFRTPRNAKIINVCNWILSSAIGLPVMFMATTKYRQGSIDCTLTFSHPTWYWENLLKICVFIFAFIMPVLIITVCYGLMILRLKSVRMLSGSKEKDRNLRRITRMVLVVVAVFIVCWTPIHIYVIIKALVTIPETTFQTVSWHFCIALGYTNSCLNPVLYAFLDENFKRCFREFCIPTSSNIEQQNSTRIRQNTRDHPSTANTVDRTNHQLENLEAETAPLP

[1] = U-2 OS cells, read-out: GTPγS κ EC50
[2] = U-2 OS cells, relative to U69,593
[3] = U-2 OS cells, read-out: GTPγS μ EC50
[4] = U-2 OS cells, read-out: GTPγS μ Emax
[5] = read-out: GTPγS μ Emax, U-2 OS cells
[6] = U-2 OS cells, bound in μM, read-out: GTPγS κ EC50

κ opioid receptor, sequence (P41145 whole entry): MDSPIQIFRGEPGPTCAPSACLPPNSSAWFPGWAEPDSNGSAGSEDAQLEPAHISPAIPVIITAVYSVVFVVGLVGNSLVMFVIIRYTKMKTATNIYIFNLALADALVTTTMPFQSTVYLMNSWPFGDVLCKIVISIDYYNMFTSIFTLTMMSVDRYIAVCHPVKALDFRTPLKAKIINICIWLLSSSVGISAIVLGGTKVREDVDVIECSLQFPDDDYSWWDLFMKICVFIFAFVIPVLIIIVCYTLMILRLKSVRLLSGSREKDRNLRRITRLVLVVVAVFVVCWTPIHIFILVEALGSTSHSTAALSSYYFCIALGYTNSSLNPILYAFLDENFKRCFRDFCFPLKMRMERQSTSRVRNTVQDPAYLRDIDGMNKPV

Compound | EC50 (κ opioid receptor; [1]) [µM] | Emax (κ opioid receptor; [2]) [%] | EC50 (μ-opioid receptor; [3]) [µM] | Emax (μ-opioid receptor; [4]) [%] | EC50 (κ opioid receptor) [µM] | Emax (κ opioid receptor) [%] | Emax (μ-opioid receptor; [5]) [%] | EC50 (μ-opioid receptor; GTPγS μ EC50, U-2 OS cells, bound in μM) [µM] | EC50 (κ opioid receptor; [6]) [µM] | EC50 (μ-opioid receptor; GTPγS μ EC50, U-2 OS cells) [µM] | EC50 (μ-opioid receptor; U-2 OS cells, bound in μM, read-out: GTPγS μ EC50) [µM]
CN1CC[C@@]2(C)c3cc(O)ccc3C[C@@H]1[C@@H]2N(C)C(=O)Cc1ccccc1 [Compound 118, N-((2R,6S,11R)-8-hydroxy-3,6-dimethyl-1,2,3,4,5,6-hexahydro-2,6-methanobenzo[d]azocin-11-yl)-N-methyl-2-phenylacetamide] | 0.0908 ± 0.00763 | 75.2 ± 4.33 | 0.00132 ± 4e-05 | 101 ± 2.52 | – | – | – | – | – | – | –
CN1CC[C@@]2(C)c3cc(O)ccc3C[C@@H]1[C@@H]2N(C)C(=O)c1ccccc1 [Compound 119, N-((2R,6S,11R)-8-hydroxy-3,6-dimethyl-1,2,3,4,5,6-hexahydro-2,6-methanobenzo[d]azocin-11-yl)-N-methylbenzamide] | 0.383 ± 0.0219 | 96.7 ± 5.36 | 0.0322 ± 0.00326 | 100 ± 2.73 | – | – | – | – | – | – | –
CN1CC[C@@]2(C)c3cc(O)ccc3C[C@@H]1[C@H]2N(C)C(=O)C1CCCCC1 [Compound 120, N-((2R,6S,11S)-8-hydroxy-3,6-dimethyl-1,2,3,4,5,6-hexahydro-2,6-methanobenzo[d]azocin-11-yl)-N-methylcyclohexanecarboxamide] | 2.86 ± 0.231 | 62.3 ± 4.91 | 2.94 ± 0.481 | 76.3 ± 3.48 | – | – | – | – | – | – | –
CN1CC[C@@]2(C)c3cc(O)ccc3C[C@@H]1[C@@H]2N(C)C(=O)C1CCCCC1 [Compound 121, N-((2R,6S,11R)-8-hydroxy-3,6-dimethyl-1,2,3,4,5,6-hexahydro-2,6-methanobenzo[d]azocin-11-yl)-N-methylcyclohexanecarboxamide] | 0.604 ± 0.0681 | 18.3 ± 0.88 | 0.126 ± 0.0154 | 91.7 ± 4.18 | – | – | – | – | – | – | –
CN1CC[C@@]2(C)c3cc(O)ccc3C[C@@H]1[C@@H]2N(C)C(=O)/C=C/c1cccnc1 [Compound 122, (E)-N-((2R,6S,11R)-8-hydroxy-3,6-dimethyl-1,2,3,4,5,6-hexahydro-2,6-methanobenzo[d]azocin-11-yl)-N-methyl-3-(pyridin-3-yl)acrylamide] | 0.0152 ± 0.00263 | 94.5 ± 0.65 | 0.00036 ± 1e-05 | 102 ± 1.2 | – | – | – | – | – | – | –
CN1CC[C@@]2(C)c3cc(O)ccc3C[C@@H]1[C@@H]2N(C)C(=O)Cc1ccsc1 [Compound 123, N-((2R,6S,11R)-8-hydroxy-3,6-dimethyl-1,2,3,4,5,6-hexahydro-2,6-methanobenzo[d]azocin-11-yl)-N-methyl-2-(thiophen-3-yl)acetamide] | – | – | – | – | 0.113 ± 0.0058 | 74 ± 3.06 | 104 ± 3.06 | – | – | – | –
CN1CC[C@@]2(C)c3cc(O)ccc3C[C@@H]1[C@@H]2N(C)C(=O)c1ccsc1 [Compound 124, N-((2R,6S,11R)-8-hydroxy-3,6-dimethyl-1,2,3,4,5,6-hexahydro-2,6-methanobenzo[d]azocin-11-yl)-N-methylthiophene-3-carboxamide] | 0.68 ± 0.0677 | 77.3 ± 4.63 | 0.0141 ± 0.00048 | 98 ± 3.06 | – | – | – | – | – | – | –
CN1CC[C@@]2(C)c3cc(O)ccc3C[C@@H]1[C@H]2N(C)C(=O)c1ccsc1 [Compound 125, N-((2R,6S,11S)-8-hydroxy-3,6-dimethyl-1,2,3,4,5,6-hexahydro-2,6-methanobenzo[d]azocin-11-yl)-N-methylthiophene-3-carboxamide] | 0.443 ± 0.0732 | 102 ± 5.69 | 2.62 ± 0.396 | 70.7 ± 2.33 | – | – | – | – | – | – | –
CN1CC[C@@]2(C)c3cc(O)ccc3C[C@@H]1[C@H]2N(C)C(=O)c1ccc(C(F)(F)F)cn1 [Compound 126, N-((2R,6S,11S)-8-hydroxy-3,6-dimethyl-1,2,3,4,5,6-hexahydro-2,6-methanobenzo[d]azocin-11-yl)-N-methyl-5-(trifluoromethyl)picolinamide] | 1.47 ± 0.0913 | 63.7 ± 3.93 | 0.147 ± 0.00947 | 103 ± 2.4 | – | – | – | – | – | – | –
C[C@]12CCN(CC3CC3)[C@H](Cc3ccc(O)cc31)[C@@H]2NC(=O)c1ccsc1 [Compound 127, N-((2R,6S,11R)-3-(cyclopropylmethyl)-8-hydroxy-6-methyl-1,2,3,4,5,6-hexahydro-2,6-methanobenzo[d]azocin-11-yl)thiophene-3-carboxamide] | – | – | – | – | 0.947 ± 0.068 | 93 ± 3.51 | 3.67 ± 1.2 | > 20 | – | – | –
C[C@]12CCN(CC3CC3)[C@H](Cc3ccc(O)cc31)[C@@H]2NS(=O)(=O)c1cccc(C(F)(F)F)c1 [Compound 129, N-((2R,6S,11R)-3-(cyclopropylmethyl)-8-hydroxy-6-methyl-1,2,3,4,5,6-hexahydro-2,6-methanobenzo[d]azocin-11-yl)-3-(trifluoromethyl)benzenesulfonamide] | 0.00078 ± 7e-05 | 97.3 ± 1.86 | 0.00914 ± 0.00119 | 20 ± 1.15 | – | – | – | – | – | – | –
CN([C@@H]1[C@H]2Cc3ccc(O)cc3[C@]1(C)CCN2CC1CC1)S(=O)(=O)c1cccc(C(F)(F)F)c1 [Compound 130, N-((2R,6S,11S)-3-(cyclopropylmethyl)-8-hydroxy-6-methyl-1,2,3,4,5,6-hexahydro-2,6-methanobenzo[d]azocin-11-yl)-N-methyl-3-(trifluoromethyl)benzenesulfonamide] | 0.0228 ± 0.00338 | 71 ± 3.11 | 0.373 ± 0.105 | 29 ± 2 | – | – | – | – | – | – | –
CN1CC[C@@]2(C)c3cc(O)ccc3C[C@@H]1[C@H]2N(C)S(=O)(=O)c1cccc(C(F)(F)F)c1 [Compound 131, N-((2R,6S,11S)-8-hydroxy-3,6-dimethyl-1,2,3,4,5,6-hexahydro-2,6-methanobenzo[d]azocin-11-yl)-N-methyl-3-(trifluoromethyl)benzenesulfonamide] | – | 0 | 0.29 ± 0.00532 | 69 ± 1 | – | – | – | – | > 20 | – | –
CN1CC[C@@]2(C)c3cc(O)ccc3C[C@@H]1[C@@H]2N(C)S(=O)(=O)c1cccc(C(F)(F)F)c1 [Compound 132, N-((2R,6S,11R)-8-hydroxy-3,6-dimethyl-1,2,3,4,5,6-hexahydro-2,6-methanobenzo[d]azocin-11-yl)-N-methyl-3-(trifluoromethyl)benzenesulfonamide] | 0.0114 ± 0.00158 | 89 ± 5.69 | 0.00303 ± 0.00017 | 95.3 ± 2.6 | – | – | – | – | – | – | –
CN(C(=O)Nc1ccc(C(C)(C)C)cc1)[C@@H]1[C@H]2Cc3ccc(O)cc3[C@]1(C)CCN2CC1CC1 [Compound 133, 3-(4-(tert-butyl)phenyl)-1-((2R,6S,11S)-3-(cyclopropylmethyl)-8-hydroxy-6-methyl-1,2,3,4,5,6-hexahydro-2,6-methanobenzo[d]azocin-11-yl)-1-methylurea] | 0.0217 ± 0.00316 | 42 ± 4.02 | 0.0039 ± 0.00074 | 22.3 ± 1.2 | – | – | – | – | – | – | –
CN(C(=O)Nc1nc2cc(F)ccc2s1)[C@@H]1[C@H]2Cc3ccc(O)cc3[C@]1(C)CCN2CC1CC1 [Compound 134, 1-((2R,6S,11S)-3-(cyclopropylmethyl)-8-hydroxy-6-methyl-1,2,3,4,5,6-hexahydro-2,6-methanobenzo[d]azocin-11-yl)-3-(5-fluorobenzo[d]thiazol-2-yl)-1-methylurea] | – | – | – | – | > 20 | 90 | 16 ± 0.71 | – | – | 0.00147 ± 0.00058 | –
C=CC[C@@]12CCN(C)C(Cc3ccc(OC)cc31)[C@@H]2N(C)C(=O)Nc1ccc(C#N)cc1 [Compound 135, 1-((6R,11R)-6-allyl-8-methoxy-3-methyl-1,2,3,4,5,6-hexahydro-2,6-methanobenzo[d]azocin-11-yl)-3-(4-cyanophenyl)-1-methylurea] | 2.81 ± 0.397 | 22 ± 2.52 | 1.7 ± 0.112 | 92 ± 2.65 | – | – | – | – | – | – | –
CCC[C@@]12CCN(C)C(Cc3ccc(OC)cc31)[C@@H]2N(C)C(=O)Nc1ccc(C#N)cc1 [Compound 136, 3-(4-cyanophenyl)-1-((6R,11R)-8-methoxy-3-methyl-6-propyl-1,2,3,4,5,6-hexahydro-2,6-methanobenzo[d]azocin-11-yl)-1-methylurea] | 3.83 ± 0.541 | 22.3 ± 3.71 | 2.33 ± 0.236 | 62.3 ± 3.84 | – | – | – | – | – | – | –
CCC[C@@]12CCN(C)C(Cc3ccc(O)cc31)[C@H]2N(C)C(=O)Nc1ccc(C#N)cc1 [Compound 137, 3-(4-cyanophenyl)-1-((6R,11S)-8-hydroxy-3-methyl-6-propyl-1,2,3,4,5,6-hexahydro-2,6-methanobenzo[d]azocin-11-yl)-1-methylurea] | 3.37 ± 0.753 | 30 ± 2.31 | 1.32 ± 0.177 | 50.3 ± 1.76 | – | – | – | – | – | – | –
CCC[C@@]12CCN(C)C(Cc3ccc(OC)cc31)[C@H]2N(C)C(=O)Nc1ccc(CN)cc1 [Compound 138, 3-(4-(aminomethyl)phenyl)-1-((6R,11S)-8-methoxy-3-methyl-6-propyl-1,2,3,4,5,6-hexahydro-2,6-methanobenzo[d]azocin-11-yl)-1-methylurea] | – | 35.5 ± 2.06 | – | 45.3 ± 2.33 | – | – | – | – | > 20 | – | > 20
CN1CC[C@@]2(C)c3cc(O)ccc3C[C@@H]1[C@@H]2NC(=O)Nc1nc2cc(F)ccc2s1 [Compound 139, 1-(5-fluorobenzo[d]thiazol-2-yl)-3-((2R,6S,11R)-8-hydroxy-3,6-dimethyl-1,2,3,4,5,6-hexahydro-2,6-methanobenzo[d]azocin-11-yl)urea] | 0.0918 ± 0.00488 | 48 ± 5.13 | 0.0125 ± 0.00218 | 87 ± 3.08 | – | – | – | – | – | – | –
CN1CC[C@@]2(C)c3cc(O)ccc3C[C@@H]1[C@@H]2N(C)C(=O)Nc1nc2cc(F)ccc2s1 [Compound 140, 3-(5-fluorobenzo[d]thiazol-2-yl)-1-((2R,6S,11R)-8-hydroxy-3,6-dimethyl-1,2,3,4,5,6-hexahydro-2,6-methanobenzo[d]azocin-11-yl)-1-methylurea] | 0.00468 ± 0.0004 | 107 ± 4.4 | 0.0001 ± 1e-05 | 82 ± 0.91 | – | – | – | – | – | – | –
